Experimental data as given in PubChem BioAssay AID1963433 (Molecular Pharmacology Branch, DTP, NCI, 2024).

System: 772245-204-R-J1-PDC complex spheroid growth
Assay: Anticancer human tumor 772245-204-R-J1-PDC patient-derived rhabdomyosarcoma cell line growth inhibition [Asc]
Conditions: for IC50: curve of first compound; for viability, T/C: stronger effect = lower value
Method in brief: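 Complex spheroids combining tumor cells with HUVEC endothelial cells and human MSCs, at 37 degrees C, 5% CO2; agents tested alone or combined, half-log dilutions from at or near clinical Cmax, or 10 microM if Cmax unknown.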
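Also: compound exposure lasted seven days.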
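For viability, T/C in this document: 100% = DMSO vehicle control viability.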

## Cc1nc(N2CCC3(CC2)COC(C)C3N)c(CO)nc1Sc1ccnc(N)c1Cl (configuration not stated) + CCN1C(C(=O)NC23CCC(C(=O)O)(CC2)CC3)C(c2cccc(Cl)c2F)C2(C(=O)Nc3cc(Cl)ccc32)C12CCCCC2
Second compound 0.03 µM
  IC50: > 3 µM
Second compound 0.0949 µM
  IC50: > 3 µM
Second compound 0.3 µM
  IC50: > 3 µM
Second compound 0.949 µM
  IC50: > 3 µM
Second compound 3 µM
  IC50: 2.74 µM
Second compound 0.03 µM, first compound 0.00949 µM
  viability, T/C: 94.9%
Second compound 0.03 µM, first compound 0.03 µM
  viability, T/C: 120%
Second compound 0.03 µM, first compound 0.0949 µM
  viability, T/C: 108%
Second compound 0.03 µM, first compound 0.3 µM
  viability, T/C: 102%
Second compound 0.03 µM, first compound 0.949 µM
  viability, T/C: 76.9%
Second compound 0.03 µM, first compound 3 µM
  viability, T/C: 56.9%
Second compound 0.0949 µM, first compound 0.00949 µM
  viability, T/C: 97.1%
Second compound 0.0949 µM, first compound 0.03 µM
  viability, T/C: 100%
Second compound 0.0949 µM, first compound 0.0949 µM
  viability, T/C: 119%
Second compound 0.0949 µM, first compound 0.3 µM
  viability, T/C: 93.3%
Second compound 0.0949 µM, first compound 0.949 µM
  viability, T/C: 84.1%
Second compound 0.0949 µM, first compound 3 µM
  viability, T/C: 51%
Second compound 0.3 µM, first compound 0.00949 µM
  viability, T/C: 111%
Second compound 0.3 µM, first compound 0.03 µM
  viability, T/C: 110%
Second compound 0.3 µM, first compound 0.0949 µM
  viability, T/C: 88.3%
Second compound 0.3 µM, first compound 0.3 µM
  viability, T/C: 85.3%
Second compound 0.3 µM, first compound 0.949 µM
  viability, T/C: 77.8%
Second compound 0.3 µM, first compound 3 µM
  viability, T/C: 52%
Second compound 0.949 µM, first compound 0.00949 µM
  viability, T/C: 113%
Second compound 0.949 µM, first compound 0.03 µM
  viability, T/C: 109%
Second compound 0.949 µM, first compound 0.0949 µM
  viability, T/C: 109%
Second compound 0.949 µM, first compound 0.3 µM
  viability, T/C: 97.5%
Second compound 0.949 µM, first compound 0.949 µM
  viability, T/C: 75.7%
Second compound 0.949 µM, first compound 3 µM
  viability, T/C: 52%
Second compound 3 µM, first compound 0.00949 µM
  viability, T/C: 75.6%
Second compound 3 µM, first compound 0.03 µM
  viability, T/C: 92.5%
Second compound 3 µM, first compound 0.0949 µM
  viability, T/C: 85.7%
Second compound 3 µM, first compound 0.3 µM
  viability, T/C: 71.9%
Second compound 3 µM, first compound 0.949 µM
  viability, T/C: 62.6%
Second compound 3 µM, first compound 3 µM
  viability, T/C: 48.5%

## C#Cc1c(F)ccc2cc(O)cc(-c3ncc4c(N5CC6CCC(C5)N6)nc(OCC56CCCN5CC(F)C6)nc4c3F)c12 (configuration not stated) + CNC(C)C(=O)NC1CN(S(=O)(=O)c2cccc(S(=O)(=O)N3CCC4CCC(C(=O)NC(c5ccccc5)c5ccccc5)N4C(=O)C(NC(=O)C(C)NC)C3)c2)CCC2CCC(C(=O)NC(c3ccccc3)c3ccccc3)N2C1=O
Second compound 0.00316 µM
  IC50: > 10 µM
Second compound 0.01 µM
  IC50: > 10 µM
Second compound 0.0316 µM
  IC50: > 10 µM
Second compound 0.1 µM
  IC50: > 10 µM
Second compound 0.316 µM
  IC50: > 10 µM
Second compound 1 µM
  IC50: > 10 µM
Second compound 0.00316 µM, first compound 0.0316 µM
  viability, T/C: 104%
Second compound 0.00316 µM, first compound 0.1 µM
  viability, T/C: 104%
Second compound 0.00316 µM, first compound 0.316 µM
  viability, T/C: 92.4%
Second compound 0.00316 µM, first compound 1 µM
  viability, T/C: 102%
Second compound 0.00316 µM, first compound 3.16 µM
  viability, T/C: 89.2%
Second compound 0.00316 µM, first compound 10 µM
  viability, T/C: 79%
Second compound 0.01 µM, first compound 0.0316 µM
  viability, T/C: 101%
Second compound 0.01 µM, first compound 0.1 µM
  viability, T/C: 88%
Second compound 0.01 µM, first compound 0.316 µM
  viability, T/C: 91%
Second compound 0.01 µM, first compound 1 µM
  viability, T/C: 104%
Second compound 0.01 µM, first compound 3.16 µM
  viability, T/C: 86.5%
Second compound 0.01 µM, first compound 10 µM
  viability, T/C: 64.1%
Second compound 0.0316 µM, first compound 0.0316 µM
  viability, T/C: 92.7%
Second compound 0.0316 µM, first compound 0.1 µM
  viability, T/C: 93.8%
Second compound 0.0316 µM, first compound 0.316 µM
  viability, T/C: 89.6%
Second compound 0.0316 µM, first compound 1 µM
  viability, T/C: 101%
Second compound 0.0316 µM, first compound 3.16 µM
  viability, T/C: 107%
Second compound 0.0316 µM, first compound 10 µM
  viability, T/C: 71.8%
Second compound 0.1 µM, first compound 0.0316 µM
  viability, T/C: 100%
Second compound 0.1 µM, first compound 0.1 µM
  viability, T/C: 93.4%
Second compound 0.1 µM, first compound 0.316 µM
  viability, T/C: 95.8%
Second compound 0.1 µM, first compound 1 µM
  viability, T/C: 89%
Second compound 0.1 µM, first compound 3.16 µM
  viability, T/C: 101%
Second compound 0.1 µM, first compound 10 µM
  viability, T/C: 67.8%
Second compound 0.316 µM, first compound 0.0316 µM
  viability, T/C: 94.2%
Second compound 0.316 µM, first compound 0.1 µM
  viability, T/C: 67.8%
Second compound 0.316 µM, first compound 0.316 µM
  viability, T/C: 82%
Second compound 0.316 µM, first compound 1 µM
  viability, T/C: 96.5%
Second compound 0.316 µM, first compound 3.16 µM
  viability, T/C: 92.4%
Second compound 0.316 µM, first compound 10 µM
  viability, T/C: 68%
Second compound 1 µM, first compound 0.0316 µM
  viability, T/C: 78.9%
Second compound 1 µM, first compound 0.1 µM
  viability, T/C: 96.2%
Second compound 1 µM, first compound 0.316 µM
  viability, T/C: 93.3%
Second compound 1 µM, first compound 1 µM
  viability, T/C: 83%
Second compound 1 µM, first compound 3.16 µM
  viability, T/C: 80%
Second compound 1 µM, first compound 10 µM
  viability, T/C: 63.9%
